Test results: PubChem BioAssay (NCI)
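Protocol summary: plate cells (96-well), add compound at 5 concentrations, incubate 48 h, interpolate endpoints linearly. GI50 marks 50% less growth. TGI marks complete inhibition of growth.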

How the values were obtained:
Test in all cases: NCI-60 cell line screen, 48 h
HOP-92 NSCLC = system: HOP-92 NSCLC
EKVX NSCLC = system: EKVX NSCLC
M14 melanoma = system: M14 melanoma
NCI-H522 lung = system: NCI-H522 lung
NCI-H23 lung = system: NCI-H23 lung
OVCAR-5 ovarian = system: OVCAR-5 ovarian
SN12C renal = system: SN12C renal
SK-MEL-2 melanoma = system: SK-MEL-2 melanoma
OVCAR-4 ovarian = system: OVCAR-4 ovarian
MOLT-4 leukemia = system: MOLT-4 leukemia

SMILES | GI50 (HOP-92 NSCLC) [µM] | TGI (HOP-92 NSCLC) [µM] | GI50 (EKVX NSCLC) [µM] | TGI (EKVX NSCLC) [µM] | GI50 (M14 melanoma) [µM] | TGI (M14 melanoma) [µM] | GI50 (NCI-H522 lung) [µM] | TGI (NCI-H522 lung) [µM] | GI50 (NCI-H23 lung) [µM] | TGI (NCI-H23 lung) [µM] | GI50 (OVCAR-5 ovarian) [µM] | TGI (OVCAR-5 ovarian) [µM] | GI50 (SN12C renal) [µM] | TGI (SN12C renal) [µM] | GI50 (SK-MEL-2 melanoma) [µM] | TGI (SK-MEL-2 melanoma) [µM] | GI50 (OVCAR-4 ovarian) [µM] | TGI (OVCAR-4 ovarian) [µM] | GI50 (MOLT-4 leukemia) [µM] | TGI (MOLT-4 leukemia) [µM]
CC(=O)[CH-]C(=O)c1ccccc1.CC(=O)[CH-]C(=O)c1ccccc1.CC1(C)OCC(C2OC3OC(C)(C)OC3C2[O-])O1.CC[O-].[Ti+4] (configuration not stated) | 6.84 | 20.6 | 6.56 | 23.3 | 16.3 | 36.1 | 16.5 | 30.8 | 15.8 | 30 | 14.2 | 31.5 | 15.6 | 33.1 | 12 | 27.8 | 14.2 | 32.2 | 15.5 | 82.1
C/C1=C\CC[C@@](C)(O)[C@@H]2C[C@H](CC/C(C)=C/CC1)C1(CC1)C(=O)O2 |  |  | 45.4 | > 100 | 32.7 | 91.6 | 35.1 | > 100 | 18.9 | 48.7 | 54.9 | > 100 | 21.5 | 56.2 | 41.2 | > 100 | 26.3 | > 100 | 15.5 | 38.2
Fc1ccc2nc(-c3cc(-c4ccc5c(c4)OCO5)n[nH]3)[nH]c2c1 | 1.87 | 8.79 |  |  | 2.78 | > 32.5 | 2.61 | 13 | 6.58 | > 93.8 | 35.5 | > 100 | 4.59 | > 100 | 2.87 | 17.1 | 1.37 | 4.8 | 2.56 | > 69.4
Cc1cccc(C)c1N1C(=O)C(=O)C(c2nc3ccccc3s2)/C(=N/NC(=O)NN)C1=O (configuration not stated) |  | > 100 |  | > 100 |  | > 100 |  | > 100 |  | > 100 |  |  |  | > 100 |  | > 100 |  | > 100 |  | > 100
COc1ccc(C2Oc3c(c(O)cc4c3[C@H](c3ccc(O)cc3O)[C@H](O)C(c3ccc(O)c(O)c3)O4)C[C@@H]2O)cc1O (some centres not stated) |  | > 100 |  | > 100 |  | > 100 |  | > 100 |  | > 100 |  | > 100 |  | > 100 |  | > 100 |  | > 100 |  | > 100
CCNCCNc1cc(-c2ccc(C#N)cc2)c(C#N)c2nc3ccccc3n12 | 2.21 | 4.5 | 4.75 | 19.3 | 1.88 | 3.79 | 2.44 | 7.06 | 5.3 | 21.3 | 4.66 | 18.4 | 3.13 | 11.8 | 3.2 | 10.4 | 2.54 | 8.74 |  | 
C=C1C2Oc3ccccc3C1N(c1ccccc1)O2 (configuration not stated) |  |  |  | > 100 |  | 67.1 |  | 80.8 |  |  |  | > 100 |  | 88.1 |  | > 100 |  | 75.3 |  | > 100
O=C(/C=C/c1cccc(O)c1)c1cccc(-n2cc(-c3ccc4ccccc4c3)[nH]c2=O)c1 | 0.518 | 8.69 | 2.64 | 13.9 | 1.49 | 3.07 | 1.29 | 2.9 | 1.52 | 3.58 | 1.89 | 3.6 | 1.44 | 3.56 | 2.31 | 7.97 |  |  | 1.27 | 5.24
CC(C)(C)NCC(COc1ccc([N+](=O)[O-])cc1)OP(c1ccccc1)c1ccccc1 (configuration not stated) |  |  |  | > 100 |  | > 100 |  | 69.5 |  | > 100 |  | > 100 |  | > 100 |  | > 100 |  |  |  | 49.6
O=C(CC1(O)C(=O)Nc2c(Cl)ccc(Cl)c21)c1ccc(Cl)cc1Cl (configuration not stated) |  | 49.6 |  | 44 |  | 25.9 |  |  |  | 43.3 |  | 35.6 |  | 30.5 |  | 48.9 |  | 23.3 |  | 
C=CC1=C(C)C2=NC1=CC1=NC(=CC3=C(C)C4=C(O)[C@H](C(=O)OC)C(=C5NC(=C2)[C@@H](C)[C@@H]5CCC(=O)O)C4=N3)C(CC)=C1C |  | 3.98 |  |  |  |  |  |  |  | 9.12 |  | > 23.7 |  | > 100 |  | > 22.2 |  | 22 |  | 
CC(C)(C)c1ccc(OC2CCO2)cc1 (configuration not stated) |  | 82 |  | 90.1 |  | > 100 |  | 52.5 |  | > 100 |  | 98.7 |  | 38.1 |  |  |  | > 100 |  | 72.3
CCOC(=O)N1CCN(CCCCCOc2ccccc2C2CCCCC2)CC1 | 4.07 | 17.5 | 3.23 | 16.5 | 2.98 | 11 |  |  | 3.12 | 5.93 |  |  | 6.34 | 22.2 |  |  | 9.2 | 22.2 | 2.92 | 13
O=C1c2ccccc2-c2c1c1ccccc1c(=O)n2CCNCCn1c2c(c3ccccc3c1=O)C(=O)c1ccccc1-2 |  |  | > 25 | > 25 | > 25 | > 25 | > 25 | > 25 | > 25 | > 25 | > 25 | > 25 | > 25 | > 25 | > 25 | > 25 |  |  | 4.84 | 12.8
CC1=NN(C(=O)c2ccncc2)C(=O)C1N=Nc1ccc(F)cc1 (configuration not stated) |  | > 100 |  | > 100 |  | > 100 |  | > 100 |  | > 100 |  | > 100 |  | > 100 |  | > 100 |  | > 100 |  | 
COc1ccc2c(NCCCCCCNc3c4ccccc4nc4cc(OC)ccc34)c3ccccc3nc2c1 |  | 2.07 |  | 2.53 |  | 1.23 |  | 0.34 |  | 0.819 |  | 1.89 |  | 1.49 |  | 1.67 |  | 0.461 |  | 
COc1cc(CNc2nc3ccc(C(F)(F)F)cc3nc2-c2ccccc2)cc(OC)c1OC |  |  |  | 59.6 |  | > 100 |  | 55.7 |  | > 100 |  | > 100 |  | > 100 |  | > 100 |  | > 100 |  | 56.8
